From ChEMBL document CHEMBL4177726, “Synthesis and anti-influenza virus evaluation of triterpene-sialic acid conjugates” (Bioorg Med Chem, 2018)

What was measured:
[1] = target: Neuraminidase (Influenza A virus (A/Puerto Rico/8/1934(H1N1))) (UniProt P03468); test: Inhibition of Influenza A virus A/PR/8/34(H1N1) sialidase at 3.33 x 10^-4M preincubated for 15 mins followed by MUNA substrate addition measured after 15 mins by fluorescence assay relative to control
[2] = Inhibition of Influenza A virus A/Duck/313/4/78(H5N3) sialidase at 3.33 x 10^-4M preincubated for 15 mins followed by MUNA substrate addition measured after 15 mins by fluorescence assay relative to control
[3] = target: Neuraminidase (Influenza A virus (A/Memphis/1/1971(H3N2))) (UniProt P03471); test: Inhibition of Influenza A virus A/Memphis/1/71(H3N2) sialidase at 3.33 x 10^-4M preincubated for 15 mins followed by MUNA substrate addition measured after 15 mins by fluorescence assay relative to control
Chain of Neuraminidase (Influenza A virus (A/Memphis/1/1971(H3N2))) (P03471 whole entry): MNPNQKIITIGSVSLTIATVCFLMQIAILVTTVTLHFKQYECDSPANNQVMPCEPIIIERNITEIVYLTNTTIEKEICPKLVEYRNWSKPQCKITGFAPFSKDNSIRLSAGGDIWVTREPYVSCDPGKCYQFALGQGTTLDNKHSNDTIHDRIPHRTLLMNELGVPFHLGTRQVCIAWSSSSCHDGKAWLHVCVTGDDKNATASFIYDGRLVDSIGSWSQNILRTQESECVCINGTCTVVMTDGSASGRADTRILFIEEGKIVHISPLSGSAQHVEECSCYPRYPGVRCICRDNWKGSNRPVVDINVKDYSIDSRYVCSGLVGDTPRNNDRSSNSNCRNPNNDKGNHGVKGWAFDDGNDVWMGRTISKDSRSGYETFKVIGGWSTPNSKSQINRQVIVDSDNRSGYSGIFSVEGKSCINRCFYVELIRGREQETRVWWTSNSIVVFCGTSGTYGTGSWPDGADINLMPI

MDCK = test: Cytotoxicity against MDCK cells assessed as reduction in cell viability at 1 x 10^-5 M after 24 hrs by CCK8 assay; type: cell-based, Canis lupus familiaris; conditions: dog, 10 µM
Influenza A virus [4] = test: Antiviral activity against Influenza A virus A/PR/8/34(H1N1) infected in MDCK cells assessed as viral yield at 1 x 10^-5 M preincubated with virus for 1 hr followed by viral infection measured after 18 hrs by beta-galactosidase based fluorescence assay (reference value: 100%); type: functional, A/Puerto Rico/8/1934(H1N1)
Influenza A virus [5] = test: Antiviral activity against Influenza A virus A/PR/8/34(H1N1) infected in MDCK cells assessed as reduction in viral yield at 1 x 10^-5 M preincubated with virus for 1 hr followed by viral infection measured after 18 hrs by beta-galactosidase based fluorescence assay; type: functional, organism-based; conditions: A/Puerto Rico/8/1934(H1N1)

Chain of Neuraminidase (Influenza A virus (A/Puerto Rico/8/1934(H1N1))) (P03468 whole entry): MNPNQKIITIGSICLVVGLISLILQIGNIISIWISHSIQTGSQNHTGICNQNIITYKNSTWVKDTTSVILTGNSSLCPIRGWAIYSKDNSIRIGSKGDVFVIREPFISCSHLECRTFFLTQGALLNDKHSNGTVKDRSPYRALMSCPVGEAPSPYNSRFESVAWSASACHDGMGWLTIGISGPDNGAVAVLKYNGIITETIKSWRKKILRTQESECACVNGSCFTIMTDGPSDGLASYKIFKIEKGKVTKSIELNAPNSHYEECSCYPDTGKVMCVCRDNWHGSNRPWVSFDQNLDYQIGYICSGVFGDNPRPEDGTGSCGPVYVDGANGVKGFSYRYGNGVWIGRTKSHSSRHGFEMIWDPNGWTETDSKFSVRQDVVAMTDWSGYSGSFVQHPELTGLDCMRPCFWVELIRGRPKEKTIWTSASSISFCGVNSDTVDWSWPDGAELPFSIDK

CC(=O)N[C@H]1[C@H]([C@H](O)[C@H](O)CO)O[C@@](O[C@H]2CC[C@]3(C)[C@H]4C(=O)C=C5[C@@H]6C[C@@](C)(CO)CC[C@]6(C)CC[C@@]5(C)[C@]4(C)CC[C@H]3C2(C)C)(C(=O)O)C[C@@H]1O
inhibition [1]: 50.3% | inhibition [2]: 25.3% | inhibition [3]: 30.3%

COC(=O)[C@@]1(C)CC[C@]2(C)CC[C@]3(C)C(=CC(=O)[C@@H]4[C@@]5(C)CC[C@H](O[C@@]6(C(=O)O)C[C@H](O)[C@@H](NC(C)=O)[C@H]([C@H](O)[C@H](O)CO)O6)C(C)(C)[C@@H]5CC[C@]43C)[C@@H]2C1
inhibition [1]: 35.4% | inhibition [2]: 46.2% | inhibition [3]: 44.8%

CC(=O)N[C@H]1[C@H]([C@H](O)[C@H](O)CO)O[C@](O[C@H]2CC[C@]3(C)[C@H]4C(=O)C=C5[C@@H]6C[C@@](C)(CO)CC[C@]6(C)CC[C@@]5(C)[C@]4(C)CC[C@H]3C2(C)C)(C(=O)O)C[C@@H]1O
inhibition [1]: 35.8% | inhibition [2]: 43.8% | inhibition [3]: 40.3%

COC(=O)[C@@]1(C)CC[C@]2(C)CC[C@]3(C)C(=CC(=O)[C@@H]4[C@@]5(C)CC[C@H](O[C@]6(C(=O)O)C[C@H](O)[C@@H](NC(C)=O)[C@H]([C@H](O)[C@H](O)CO)O6)C(C)(C)[C@@H]5CC[C@]43C)[C@@H]2C1
inhibition [1]: 52.2% | inhibition [2]: 27.5% | inhibition [3]: 39.9%

CC(=O)N[C@H]1[C@H]([C@H](O)[C@H](O)CO)O[C@@](O[C@H]2CC[C@]3(C)[C@H]4CC=C5[C@@H]6C[C@@](C)(CO)CC[C@]6(C)CC[C@@]5(C)[C@]4(C)CC[C@H]3C2(C)C)(C(=O)O)C[C@@H]1O
inhibition [1]: 71% | Activity (MDCK): Non-Toxic | Activity (Influenza A virus [4]): 88% | inhibition [2]: 57.6% | inhibition [3]: 45%

CC(=O)N[C@H]1[C@H]([C@H](O)[C@H](O)CO)O[C@](O[C@H]2CC[C@]3(C)[C@H]4CC=C5[C@@H]6C[C@@](C)(CO)CC[C@]6(C)CC[C@@]5(C)[C@]4(C)CC[C@H]3C2(C)C)(C(=O)O)C[C@@H]1O
inhibition [1]: 76.7% | Activity (MDCK): Non-Toxic | Activity (Influenza A virus [5]): Dose-dependent effect | Activity (Influenza A virus [4]): 72.6% | inhibition [2]: 55.7% | inhibition [3]: 68.7%

CC(=O)N[C@H]1[C@H]([C@H](O)[C@H](O)CO)O[C@@](O[C@H]2CC[C@]3(C)[C@H]4C(=O)C=C5[C@@H]6C[C@@](C)(C(=O)O)CC[C@]6(C)CC[C@@]5(C)[C@]4(C)CC[C@H]3C2(C)C)(C(=O)O)C[C@@H]1O
inhibition [1]: 50.1% | inhibition [2]: 16.4% | inhibition [3]: 27.4%

CC(=O)N[C@H]1[C@H]([C@H](O)[C@H](O)CO)O[C@](O[C@H]2CC[C@]3(C)[C@H]4C(=O)C=C5[C@@H]6C[C@@](C)(C(=O)O)CC[C@]6(C)CC[C@@]5(C)[C@]4(C)CC[C@H]3C2(C)C)(C(=O)O)C[C@@H]1O
inhibition [1]: 21.1% | inhibition [2]: 25.8% | inhibition [3]: 23.4%

COC(=O)[C@]12CCC(C)(C)C[C@H]1C1=CC[C@@H]3[C@@]4(C)CC[C@H](O[C@]5(C(=O)O)C[C@H](O)[C@@H](NC(C)=O)[C@H]([C@H](O)[C@H](O)CO)O5)C(C)(C)[C@@H]4CC[C@@]3(C)[C@]1(C)CC2
inhibition [1]: 74.9% | Activity (MDCK): Non-Toxic | Activity (Influenza A virus [4]): 39.4% | inhibition [2]: 65.7% | inhibition [3]: 70.7%

CC(=O)N[C@H]1[C@H]([C@H](O)[C@H](O)CO)O[C@](O[C@H]2CC[C@]3(C)[C@H]4CC=C5[C@@H]6CC(C)(C)CC[C@]6(C(=O)O)CC[C@@]5(C)[C@]4(C)CC[C@H]3C2(C)C)(C(=O)O)C[C@@H]1O
inhibition [1]: 33.2% | inhibition [2]: 34.6% | inhibition [3]: 26.5%

COC(=O)[C@]12CCC(C)(C)C[C@H]1C1=CC[C@@H]3[C@@]4(C)CC[C@H](O[C@@]5(C(=O)O)C[C@H](O)[C@@H](NC(C)=O)[C@H]([C@H](O)[C@H](O)CO)O5)C(C)(C)[C@@H]4CC[C@@]3(C)[C@]1(C)CC2
inhibition [1]: 89.9% | Activity (MDCK): Non-Toxic | Activity (Influenza A virus [5]): Dose-dependent effect | Activity (Influenza A virus [4]): 46.7% | inhibition [2]: 70.7% | inhibition [3]: 64.9%
